From patent US20250325552A1, “SUBSTITUTED THIADIAZOLYL DERIVATIVES AS DNA POLYMERASE THETA INHIBITORS” (IDEAYA Biosciences, Inc., priority 2020, published 2025)

Target: Polθ theta (1-899) (hPolQ) (Homo sapiens (Human), UniProt O75417)
Assay: Biological Assay 1: Polθ ATPase activity, NADH oxidation-coupled enzymatic assay (10 nM enzyme, 30 min)
Assay type: biochemical
Details: Polθ (1-899) 10 nM, 100 μM ATP, 300 nM dT50 ssDNA; Examples 1 to 268; read-out: ATPase NADH coupling:Standard Screening:hPolQ IC50
Procedure: The ability of the compounds of Formula (I), (II), (III), (IV), or Table 1 (Examples 1 to Example 268) to inhibit ATPase activity of Polθ theta (1-899) was determined using the assay described below.
Polθ Theta ATPase activity was determined by measuring the rate of ATP turn over in a NADH oxidation-coupled enzymatic assay. 10-point dilution series of compounds were used in a 384 well format for the inhibition assays. Polθ theta (1-899) (10 nM) in assay buffer (20 mM Tris HCl (pH 7.80), 80 mM KCl, 10 mM MgCl2, 1 mM DTT, 0.01% BSA, 0.01% Tween, 5% glycerol) was transferred to the test wells (20 μL), except the low control wells (20 μL of assay buffer was added to the low control wells). The plate was then incubated at room temperature for 15 min. An equal volume (20 μL) of 100 μM ATP, 300 nM dT50 (single-stranded DNA (ssDNA) containing 50 thymine bases), 300 μM NADH, 6 mM PEP, 10 U/mL lactate dehydrogenase and U/mL pyruvate kinase in assay buffer was added to all the test wells. The plate was then centrifuged at 1000 rpm for 1 min. The reaction was monitored for 30 min by measuring absorbance (λ=340 nm) in a Tecan Spark multimode plate reader every minute. The high control (DMSO with enzyme) with low absorbance intensity represents no inhibition of ATPase reaction while the low control (DMSO with buffer) with high absorbance intensity represents full inhibition of ATPase activity. Slope of the reaction progress curves were used to calculate the rate of ATP hydrolysis. The rates were used to determine the percent inhibition using a four-parameter inhibition model to generate IC50, Hill slope and max inhibition.

Sequence of Polθ theta (1-899) (hPolQ) (O75417 1-899): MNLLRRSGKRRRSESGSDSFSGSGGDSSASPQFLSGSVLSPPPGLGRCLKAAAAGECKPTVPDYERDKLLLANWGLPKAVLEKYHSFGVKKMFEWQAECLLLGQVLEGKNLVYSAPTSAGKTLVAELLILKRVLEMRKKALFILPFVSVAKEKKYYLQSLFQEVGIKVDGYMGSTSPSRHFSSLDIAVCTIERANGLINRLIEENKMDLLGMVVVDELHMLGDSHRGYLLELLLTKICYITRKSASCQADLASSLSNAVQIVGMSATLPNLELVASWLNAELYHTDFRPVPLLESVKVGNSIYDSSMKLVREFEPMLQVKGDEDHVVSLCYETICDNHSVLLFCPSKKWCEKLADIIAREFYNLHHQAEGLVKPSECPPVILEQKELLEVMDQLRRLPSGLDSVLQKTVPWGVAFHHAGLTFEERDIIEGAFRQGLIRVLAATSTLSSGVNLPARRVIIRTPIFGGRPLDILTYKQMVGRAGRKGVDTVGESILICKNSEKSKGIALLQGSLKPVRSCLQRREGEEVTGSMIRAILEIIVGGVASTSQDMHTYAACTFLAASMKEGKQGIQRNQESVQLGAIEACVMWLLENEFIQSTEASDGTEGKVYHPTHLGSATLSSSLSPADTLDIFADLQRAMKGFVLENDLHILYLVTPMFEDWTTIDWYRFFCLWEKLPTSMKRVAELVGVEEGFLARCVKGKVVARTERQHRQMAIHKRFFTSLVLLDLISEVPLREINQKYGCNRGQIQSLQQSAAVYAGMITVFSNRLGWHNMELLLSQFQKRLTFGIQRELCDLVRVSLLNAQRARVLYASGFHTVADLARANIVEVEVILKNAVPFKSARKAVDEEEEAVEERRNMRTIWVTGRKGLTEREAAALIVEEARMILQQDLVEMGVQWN

COc1ccccc1-c1cnccc1C(=O)Nc1nnc(OCC2CCCCO2)s1 (stereo not drawn) [compound 2, 3-(2-methoxyphenyl)-N-(5-((tetrahydro-2H-pyran-2-yl)methoxy)-1,3,4-thiadiazol-2-yl)isonicotinamide]
IC50: 200 to 500 nM

COc1cnc(Cl)cc1-c1cc(C)ncc1C(=O)Nc1nnc(OCc2ccc([C@@H](C)O)cn2)s1 [Example 69, (R)-2′-chloro-N-(5-((5-(1-hydroxyethyl)pyridin-2-yl)methoxy)-1,3,4-thiadiazol-2-yl)-5′-methoxy-6-methyl-(4,4′-bipyridine)-3-carboxamide]
IC50: ≤ 200 nM

COc1cnc(Cl)cc1-c1cc(C)ncc1C(=O)Nc1nnc(OC[C@H]2C[C@@H]2F)s1 (stereo in doubt) [Example 207, 2′-chloro-N-(5-(((1R,2S)-2-fluorocyclopropyl)methoxy)-1,3,4-thiadiazol-2-yl)-5′-methoxy-6-methyl-(4,4′-bipyridine)-3-carboxamide]
IC50: ≤ 200 nM

COc1cnc(Cl)cc1-c1cc(C)ncc1C(=O)Nc1nnc(OCC2COC(C)(C)C2)s1 (stereo in doubt) [Example 188, (R)-2′-chloro-N-(5-((5,5-dimethyltetrahydrofuran-3-yl)methoxy)-1,3,4-thiadiazol-2-yl)-5′-methoxy-6-methyl-(4,4′-bipyridine)-3-carboxamide]
IC50: ≤ 200 nM

COC(C)(C)c1ccc(COc2nnc(NC(=O)c3cnc(C)cc3-c3c(F)cccc3OC(F)F)s2)nc1 [Example 124, 4-(2-(difluoromethoxy)-6-fluorophenyl)-N-(5-((5-(2-methoxypropan-2-yl)pyridin-2-yl)methoxy)-1,3,4-thiadiazol-2-yl)-6-methylpyridine-3-carboxamide]
IC50: ≤ 200 nM

COc1cnc(Cl)cc1-c1cc(C)ncc1C(=O)Nc1nnc(OCc2ccc3c(n2)OCCO3)s1 [Example 51, 2′-chloro-N-(5-((2,3-dihydro-[1,4]dioxino[2,3-b]pyridin-6-yl)methoxy)-1,3,4-thiadiazol-2-yl)-5′-methoxy-6-methyl-[4,4′-bipyridine]-3-carboxamide]
IC50: ≤ 200 nM

COc1ccc(Cl)cc1-c1cc(C)ncc1C(=O)Nc1nnc(OCc2ccc([S@](C)(=N)=O)cc2)s1 [Example 122, (R)-4-(5-chloro-2-methoxyphenyl)-6-methyl-N-(5-((4-(S-methylsulfonimidoyl)benzyl)oxy)-1,3,4-thiadiazol-2-yl)nicotinamide]
IC50: ≤ 200 nM

COc1cccc(F)c1-c1cc(C)ncc1C(=O)Nc1nnc(OCc2ccc([C@H](C)O)cn2)s1 [Example 40, 4-(2-fluoro-6-methoxyphenyl)-N-(5-((5-((S)-1-hydroxyethyl)pyridin-2-yl)methoxy)-1,3,4-thiadiazol-2-yl)-6-methylnicotinamide]
IC50: ≤ 200 nM

COc1ccccc1-c1cnccc1C(=O)Nc1nnc(OCC2CCCc3[nH]ncc32)s1 (stereo not drawn) [compound 3, 3-(2-methoxyphenyl)-N-(5-(4,5,6,7-tetrahydro-1H-indazol-4-ylmethoxy)-1,3,4-thiadiazol-2-yl)pyridine-4-carboxamide]
IC50: ≤ 200 nM

COc1cnc(C)c(F)c1-c1cc(C)ncc1C(=O)Nc1nnc(OCC23CCC(O)(CC2)C3)s1 [Example 217, 3′-fluoro-N-(5-((4-hydroxybicyclo(2.2.1)heptan-1-yl)methoxy)-1,3,4-thiadiazol-2-yl)-5′-methoxy-2′,6-dimethyl-(4,4′-bipyridine)-3-carboxamide]
IC50: ≤ 200 nM

Cc1cc(-c2cc(Cl)ncc2OC(F)F)c(C(=O)Nc2nnc(OC[C@@H]3COCCO3)s2)cn1 [Example 233, (S)—N-(5-((1,4-dioxan-2-yl)methoxy)-1,3,4-thiadiazol-2-yl)-2′-chloro-5′-(difluoromethoxy)-6-methyl-(4,4′-bipyridine)-3-carboxamide]
IC50: ≤ 200 nM

COc1ccc(Cl)cc1-c1cc(C)ncc1C(=O)Nc1nnc(OCc2ccc(CO)cn2)s1 [Example 39, 4-(5-chloro-2-methoxyphenyl)-N-(5-((5-(hydroxymethyl)pyridin-2-yl)methoxy)-1,3,4-thiadiazol-2-yl)-6-methylpyridine-3-carboxamide]
IC50: ≤ 200 nM
